Tested on: 556581-035-R-J1-PDC complex spheroid growth
Assay: Anticancer human tumor 556581-035-R-J1-PDC patient-derived ovarian carcinoma cell line growth inhibition [Asc]
Conditions: for IC50: curve of first compound; for viability, T/C: stronger effect = lower value
Summary of the method: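 Spheroid model: tumor line + HUVEC + hMSC. Single agents and combinations; top conc. at/near clinical Cmax (10 microM if undetermined), half-log dilutions. DMSO stocks at 800-fold test concentration.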

[1] = second compound 0.01 µM, first compound 0.0316 µM
[2] = second compound 0.01 µM, first compound 0.1 µM
[3] = second compound 0.0316 µM, first compound 0.0316 µM
[4] = second compound 0.0316 µM, first compound 0.1 µM
[5] = second compound 0.1 µM, first compound 0.0316 µM
[6] = second compound 0.1 µM, first compound 0.1 µM
[7] = second compound 0.316 µM, first compound 0.0316 µM
[8] = second compound 0.316 µM, first compound 0.1 µM
[9] = second compound 1 µM, first compound 0.0316 µM
[10] = second compound 1 µM, first compound 0.1 µM
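Also: spheroids exposed to agents for 7 days before viability read.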

Cc1nc(N2CCC3(CC2)COC(C)C3N)c(CO)nc1Sc1ccnc(N)c1Cl (configuration not stated) + CNC(C)C(=O)NC1CN(S(=O)(=O)c2cccc(S(=O)(=O)N3CCC4CCC(C(=O)NC(c5ccccc5)c5ccccc5)N4C(=O)C(NC(=O)C(C)NC)C3)c2)CCC2CCC(C(=O)NC(c3ccccc3)c3ccccc3)N2C1=O
IC50 (second compound 0.00316 µM): > 3 µM | IC50 (second compound 0.01 µM): > 3 µM | IC50 (second compound 0.0316 µM): 1.96 µM | IC50 (second compound 0.1 µM): 1.21 µM | IC50 (second compound 0.316 µM): 0.278 µM | IC50 (second compound 1 µM): 0.184 µM | viability, T/C (second compound 0.00316 µM, first compound 0.00949 µM): 107% | viability, T/C (second compound 0.00316 µM, first compound 0.03 µM): 95.9% | viability, T/C (second compound 0.00316 µM, first compound 0.0949 µM): 90.2% | viability, T/C (second compound 0.00316 µM, first compound 0.3 µM): 79.4% | viability, T/C (second compound 0.00316 µM, first compound 0.949 µM): 80% | viability, T/C (second compound 0.00316 µM, first compound 3 µM): 49.1% | viability, T/C (second compound 0.01 µM, first compound 0.00949 µM): 107% | viability, T/C (second compound 0.01 µM, first compound 0.03 µM): 94.5% | viability, T/C (second compound 0.01 µM, first compound 0.0949 µM): 76% | viability, T/C (second compound 0.01 µM, first compound 0.3 µM): 73.8% | viability, T/C (second compound 0.01 µM, first compound 0.949 µM): 64.9% | viability, T/C (second compound 0.01 µM, first compound 3 µM): 53.2% | viability, T/C (second compound 0.0316 µM, first compound 0.00949 µM): 91.4% | viability, T/C (second compound 0.0316 µM, first compound 0.03 µM): 81.8% | viability, T/C (second compound 0.0316 µM, first compound 0.0949 µM): 75.3% | viability, T/C (second compound 0.0316 µM, first compound 0.3 µM): 58.5% | viability, T/C (second compound 0.0316 µM, first compound 0.949 µM): 59% | viability, T/C (second compound 0.0316 µM, first compound 3 µM): 45.9% | viability, T/C (second compound 0.1 µM, first compound 0.00949 µM): 86.3% | viability, T/C (second compound 0.1 µM, first compound 0.03 µM): 78.9% | viability, T/C (second compound 0.1 µM, first compound 0.0949 µM): 71.8% | viability, T/C (second compound 0.1 µM, first compound 0.3 µM): 55.4% | viability, T/C (second compound 0.1 µM, first compound 0.949 µM): 58.4% | viability, T/C (second compound 0.1 µM, first compound 3 µM): 40.4% | viability, T/C (second compound 0.316 µM, first compound 0.00949 µM): 74.8% | viability, T/C (second compound 0.316 µM, first compound 0.03 µM): 63.4% | viability, T/C (second compound 0.316 µM, first compound 0.0949 µM): 59.4% | viability, T/C (second compound 0.316 µM, first compound 0.3 µM): 46.2% | viability, T/C (second compound 0.316 µM, first compound 0.949 µM): 46.3% | viability, T/C (second compound 0.316 µM, first compound 3 µM): 38.3% | viability, T/C (second compound 1 µM, first compound 0.00949 µM): 61.2% | viability, T/C (second compound 1 µM, first compound 0.03 µM): 61.9% | viability, T/C (second compound 1 µM, first compound 0.0949 µM): 51% | viability, T/C (second compound 1 µM, first compound 0.3 µM): 46.8% | viability, T/C (second compound 1 µM, first compound 0.949 µM): 40.8% | viability, T/C (second compound 1 µM, first compound 3 µM): 28.9%

Cn1ncnc1[C@H]1c2n[nH]c(=O)c3cc(F)cc(c23)N[C@@H]1c1ccc(F)cc1 + CNC(C)C(=O)NC1CN(S(=O)(=O)c2cccc(S(=O)(=O)N3CCC4CCC(C(=O)NC(c5ccccc5)c5ccccc5)N4C(=O)C(NC(=O)C(C)NC)C3)c2)CCC2CCC(C(=O)NC(c3ccccc3)c3ccccc3)N2C1=O
IC50 (second compound 0.01 µM): > 0.1 µM | IC50 (second compound 0.0316 µM): > 0.1 µM | IC50 (second compound 0.1 µM): > 0.1 µM | IC50 (second compound 0.316 µM): > 0.1 µM | IC50 (second compound 1 µM): > 0.1 µM | viability, T/C (second compound 0.01 µM, first compound 0.000316 µM): 69.2% | viability, T/C (second compound 0.01 µM, first compound 0.001 µM): 69.1% | viability, T/C (second compound 0.01 µM, first compound 0.00316 µM): 80.4% | viability, T/C (second compound 0.01 µM, first compound 0.01 µM): 83.8% | viability, T/C [1]: 71.4% | viability, T/C [2]: 72.9% | viability, T/C (second compound 0.0316 µM, first compound 0.000316 µM): 84.4% | viability, T/C (second compound 0.0316 µM, first compound 0.001 µM): 98.2% | viability, T/C (second compound 0.0316 µM, first compound 0.00316 µM): 79.2% | viability, T/C (second compound 0.0316 µM, first compound 0.01 µM): 77% | viability, T/C [3]: 89.9% | viability, T/C [4]: 88.8% | viability, T/C (second compound 0.1 µM, first compound 0.000316 µM): 92.7% | viability, T/C (second compound 0.1 µM, first compound 0.001 µM): 73.7% | viability, T/C (second compound 0.1 µM, first compound 0.00316 µM): 65.5% | viability, T/C (second compound 0.1 µM, first compound 0.01 µM): 69.2% | viability, T/C [5]: 69.2% | viability, T/C [6]: 62.2% | viability, T/C (second compound 0.316 µM, first compound 0.000316 µM): 76.3% | viability, T/C (second compound 0.316 µM, first compound 0.001 µM): 74% | viability, T/C (second compound 0.316 µM, first compound 0.00316 µM): 63.8% | viability, T/C (second compound 0.316 µM, first compound 0.01 µM): 74% | viability, T/C [7]: 77.4% | viability, T/C [8]: 69.9% | viability, T/C (second compound 1 µM, first compound 0.000316 µM): 78.8% | viability, T/C (second compound 1 µM, first compound 0.001 µM): 77.6% | viability, T/C (second compound 1 µM, first compound 0.00316 µM): 71.1% | viability, T/C (second compound 1 µM, first compound 0.01 µM): 69.5% | viability, T/C [9]: 71.8% | viability, T/C [10]: 67%

O=C(c1cc(Cc2n[nH]c(=O)c3ccccc23)ccc1F)N1CCN(C(=O)C2CC2)CC1 + CNC(C)C(=O)NC1CN(S(=O)(=O)c2cccc(S(=O)(=O)N3CCC4CCC(C(=O)NC(c5ccccc5)c5ccccc5)N4C(=O)C(NC(=O)C(C)NC)C3)c2)CCC2CCC(C(=O)NC(c3ccccc3)c3ccccc3)N2C1=O
IC50 (second compound 0.01 µM): > 10 µM | IC50 (second compound 0.0316 µM): > 10 µM | IC50 (second compound 0.1 µM): > 10 µM | IC50 (second compound 0.316 µM): > 10 µM | IC50 (second compound 1 µM): 10 µM | viability, T/C [1]: 83.4% | viability, T/C [2]: 74.5% | viability, T/C (second compound 0.01 µM, first compound 0.316 µM): 88.2% | viability, T/C (second compound 0.01 µM, first compound 1 µM): 93.8% | viability, T/C (second compound 0.01 µM, first compound 3.16 µM): 52.8% | viability, T/C (second compound 0.01 µM, first compound 10 µM): 56.8% | viability, T/C [3]: 89.3% | viability, T/C [4]: 88.7% | viability, T/C (second compound 0.0316 µM, first compound 0.316 µM): 87.3% | viability, T/C (second compound 0.0316 µM, first compound 1 µM): 88.8% | viability, T/C (second compound 0.0316 µM, first compound 3.16 µM): 55.3% | viability, T/C (second compound 0.0316 µM, first compound 10 µM): 73.1% | viability, T/C [5]: 84.4% | viability, T/C [6]: 67% | viability, T/C (second compound 0.1 µM, first compound 0.316 µM): 67.2% | viability, T/C (second compound 0.1 µM, first compound 1 µM): 61.5% | viability, T/C (second compound 0.1 µM, first compound 3.16 µM): 49.1% | viability, T/C (second compound 0.1 µM, first compound 10 µM): 61.2% | viability, T/C [7]: 88% | viability, T/C [8]: 76.3% | viability, T/C (second compound 0.316 µM, first compound 0.316 µM): 86% | viability, T/C (second compound 0.316 µM, first compound 1 µM): 76% | viability, T/C (second compound 0.316 µM, first compound 3.16 µM): 50% | viability, T/C (second compound 0.316 µM, first compound 10 µM): 63.2% | viability, T/C [9]: 76.8% | viability, T/C [10]: 84.1% | viability, T/C (second compound 1 µM, first compound 0.316 µM): 73.8% | viability, T/C (second compound 1 µM, first compound 1 µM): 88% | viability, T/C (second compound 1 µM, first compound 3.16 µM): 45.7% | viability, T/C (second compound 1 µM, first compound 10 µM): 61.2%

From PubChem BioAssay AID1963450 (Molecular Pharmacology Branch, DTP, NCI, 2024)
